{"source": "ChEMBL document CHEMBL4330071", "about": "(Eur J Med Chem, 2019)", "key": {"[1]": {"biological_target": "RAC-alpha serine/threonine-protein kinase (Homo sapiens) (UniProt P31749)", "test": "Inhibition of human AKT1 assessed as residual activity at 10 uM using KGSGSGRPRTSSFAEG as substrate preincubated for 20 mins followed by [gamma-33P]-ATP addition and measured after 120 mins by Hotspot assay relative to control"}, "[2]": {"biological_target": "Calcium/calmodulin-dependent protein kinase type 1 (Homo sapiens) (UniProt Q14012)", "test": "Inhibition of human CAMK1A assessed as residual activity at 10 uM using KKALRRQETVDAL as substrate preincubated for 20 mins followed by [gamma-33P]-ATP addition and measured after 120 mins by Hotspot assay relative to control"}, "[3]": {"biological_target": "CDC7/DBF4 (Cell division cycle 7-related protein kinase/Activator of S phase kinase) (Homo sapiens) (UniProt Q9UBU7+O00311)", "sequence (O00311 whole entry, looked up)": "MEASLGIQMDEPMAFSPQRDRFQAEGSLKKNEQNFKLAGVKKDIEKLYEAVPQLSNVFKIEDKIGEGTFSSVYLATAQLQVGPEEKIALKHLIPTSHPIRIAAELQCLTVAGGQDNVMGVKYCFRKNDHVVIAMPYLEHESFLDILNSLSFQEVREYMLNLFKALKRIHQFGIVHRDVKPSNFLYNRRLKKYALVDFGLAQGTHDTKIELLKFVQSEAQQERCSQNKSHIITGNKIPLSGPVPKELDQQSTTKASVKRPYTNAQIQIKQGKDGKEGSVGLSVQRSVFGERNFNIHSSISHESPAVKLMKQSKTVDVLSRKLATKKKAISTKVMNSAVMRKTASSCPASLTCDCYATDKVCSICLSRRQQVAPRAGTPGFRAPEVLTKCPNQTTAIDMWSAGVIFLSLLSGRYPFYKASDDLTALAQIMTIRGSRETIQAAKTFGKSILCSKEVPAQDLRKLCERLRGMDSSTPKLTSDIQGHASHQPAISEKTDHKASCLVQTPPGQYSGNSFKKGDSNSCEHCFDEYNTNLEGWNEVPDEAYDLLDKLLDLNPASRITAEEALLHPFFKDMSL", "sequence (Q9UBU7 whole entry, looked up)": "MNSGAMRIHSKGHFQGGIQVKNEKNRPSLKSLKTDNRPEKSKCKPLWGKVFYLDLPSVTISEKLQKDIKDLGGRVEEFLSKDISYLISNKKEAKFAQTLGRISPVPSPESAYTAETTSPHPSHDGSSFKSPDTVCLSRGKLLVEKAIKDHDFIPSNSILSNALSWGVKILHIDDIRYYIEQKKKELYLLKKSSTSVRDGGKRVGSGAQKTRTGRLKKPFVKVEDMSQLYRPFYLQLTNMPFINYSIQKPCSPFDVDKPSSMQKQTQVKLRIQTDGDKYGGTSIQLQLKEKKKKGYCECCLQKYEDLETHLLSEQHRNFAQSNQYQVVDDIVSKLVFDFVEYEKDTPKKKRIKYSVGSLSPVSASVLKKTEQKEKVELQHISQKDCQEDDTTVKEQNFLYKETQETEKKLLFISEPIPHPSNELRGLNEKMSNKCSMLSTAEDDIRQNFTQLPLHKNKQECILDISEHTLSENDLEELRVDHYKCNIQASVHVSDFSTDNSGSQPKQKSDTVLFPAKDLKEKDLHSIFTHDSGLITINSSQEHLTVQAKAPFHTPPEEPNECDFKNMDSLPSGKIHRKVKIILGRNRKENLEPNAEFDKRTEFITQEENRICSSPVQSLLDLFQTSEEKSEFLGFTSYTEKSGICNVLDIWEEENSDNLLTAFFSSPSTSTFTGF", "test": "Inhibition of human CDC7/DBF4 assessed as residual activity at 10 uM using KTFCGTPEYLAPEVRREPRILSEEEQEMFRDFDYIADWC as substrate preincubated for 20 mins followed by [gamma-33P]-ATP addition and measured after 120 mins by Hotspot assay relative to control", "format": "protein-complex assay"}, "[4]": {"biological_target": "CDK6/cyclin D1 (Homo sapiens) (UniProt P24385+Q00534)", "test": "Inhibition of human CDK6/cyclin-D1 assessed as residual activity at 10 uM using RB protein as substrate preincubated for 20 mins followed by [gamma-33P]-ATP addition and measured after 120 mins by Hotspot assay relative to control", "format": "protein-complex assay"}, "[5]": {"biological_target": "Hepatocyte growth factor receptor (Homo sapiens) (UniProt P08581)", "sequence (P08581 whole entry)": "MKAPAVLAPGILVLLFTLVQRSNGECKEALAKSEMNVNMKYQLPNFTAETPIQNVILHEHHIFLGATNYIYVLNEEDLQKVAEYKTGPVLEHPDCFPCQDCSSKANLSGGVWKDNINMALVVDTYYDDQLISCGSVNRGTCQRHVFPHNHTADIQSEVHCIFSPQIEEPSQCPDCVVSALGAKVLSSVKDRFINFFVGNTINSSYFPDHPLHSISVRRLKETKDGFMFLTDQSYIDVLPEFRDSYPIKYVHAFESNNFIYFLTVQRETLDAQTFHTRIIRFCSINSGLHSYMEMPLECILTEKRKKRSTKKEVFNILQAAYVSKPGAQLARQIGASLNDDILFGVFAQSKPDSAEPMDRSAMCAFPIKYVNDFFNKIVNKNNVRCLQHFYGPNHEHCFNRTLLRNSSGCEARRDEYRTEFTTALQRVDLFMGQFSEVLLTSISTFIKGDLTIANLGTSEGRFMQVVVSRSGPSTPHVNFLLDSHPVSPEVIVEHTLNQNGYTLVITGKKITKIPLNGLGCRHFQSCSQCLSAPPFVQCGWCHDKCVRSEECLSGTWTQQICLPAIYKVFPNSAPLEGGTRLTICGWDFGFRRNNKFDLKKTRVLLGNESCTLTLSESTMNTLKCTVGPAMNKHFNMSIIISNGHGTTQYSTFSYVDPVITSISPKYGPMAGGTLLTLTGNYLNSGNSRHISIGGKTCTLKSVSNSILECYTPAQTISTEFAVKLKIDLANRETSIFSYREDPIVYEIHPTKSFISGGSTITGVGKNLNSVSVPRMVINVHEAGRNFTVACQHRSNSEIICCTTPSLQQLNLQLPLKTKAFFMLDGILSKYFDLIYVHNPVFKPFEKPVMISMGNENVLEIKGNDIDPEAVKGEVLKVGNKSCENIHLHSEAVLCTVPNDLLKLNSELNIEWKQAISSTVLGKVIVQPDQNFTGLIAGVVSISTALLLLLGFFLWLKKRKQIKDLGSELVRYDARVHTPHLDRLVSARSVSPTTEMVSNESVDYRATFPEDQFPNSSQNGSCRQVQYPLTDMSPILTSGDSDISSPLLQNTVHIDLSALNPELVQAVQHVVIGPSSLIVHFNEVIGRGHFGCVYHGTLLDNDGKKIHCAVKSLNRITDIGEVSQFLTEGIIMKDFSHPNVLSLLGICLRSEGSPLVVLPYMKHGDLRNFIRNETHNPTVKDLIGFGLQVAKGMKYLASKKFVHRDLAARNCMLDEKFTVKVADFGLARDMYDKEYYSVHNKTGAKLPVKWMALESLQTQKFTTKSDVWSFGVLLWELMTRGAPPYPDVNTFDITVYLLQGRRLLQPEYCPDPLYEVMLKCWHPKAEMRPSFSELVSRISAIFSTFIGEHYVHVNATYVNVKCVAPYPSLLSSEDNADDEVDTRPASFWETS", "test": "Inhibition of human c-MET assessed as residual activity at 10 uM using KKKSPGEYVNIEFG as substrate preincubated for 20 mins followed by [gamma-33P]-ATP addition and measured after 120 mins by Hotspot assay relative to control"}, "[6]": {"biological_target": "Proto-oncogene tyrosine-protein kinase Src (Homo sapiens, UniProt P12931)", "test": "Inhibition of human c-SRC assessed as residual activity at 10 uM using poly[Glu:Tyr] (4:1) as substrate preincubated for 20 mins followed by [gamma-33P]-ATP addition and measured after 120 mins by Hotspot assay relative to control"}, "[7]": {"biological_target": "Epidermal growth factor receptor (Homo sapiens) (UniProt P00533)", "test": "Inhibition of human EGFR assessed as residual activity at 10 uM using poly[Glu:Tyr] (4:1) as substrate preincubated for 20 mins followed by [gamma-33P]-ATP addition and measured after 120 mins by Hotspot assay relative to control"}, "[8]": {"biological_target": "Mitogen-activated protein kinase 1 (Homo sapiens) (UniProt P28482)", "test": "Inhibition of human ERK2 assessed as residual activity at 10 uM using MBP as substrate preincubated for 20 mins followed by [gamma-33P]-ATP addition and measured after 120 mins by Hotspot assay relative to control"}, "[9]": {"biological_target": "Tyrosine-protein kinase Lck (Homo sapiens, UniProt P06239)", "sequence (P06239 2-509 limits assumed)": "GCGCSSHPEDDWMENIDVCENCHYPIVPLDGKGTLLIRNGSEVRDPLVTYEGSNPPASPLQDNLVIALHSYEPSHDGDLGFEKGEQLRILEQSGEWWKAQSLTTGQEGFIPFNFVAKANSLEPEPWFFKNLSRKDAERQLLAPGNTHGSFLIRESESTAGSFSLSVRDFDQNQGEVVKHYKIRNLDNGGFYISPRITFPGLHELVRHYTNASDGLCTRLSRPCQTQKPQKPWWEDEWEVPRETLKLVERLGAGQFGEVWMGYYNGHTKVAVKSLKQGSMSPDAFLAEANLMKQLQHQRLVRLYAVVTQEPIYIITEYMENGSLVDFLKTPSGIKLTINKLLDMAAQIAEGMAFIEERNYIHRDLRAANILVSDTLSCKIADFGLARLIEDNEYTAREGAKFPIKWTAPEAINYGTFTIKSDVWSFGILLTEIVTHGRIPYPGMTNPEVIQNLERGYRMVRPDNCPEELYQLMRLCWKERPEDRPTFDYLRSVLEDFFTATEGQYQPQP", "test": "Inhibition of human LCK assessed as residual activity at 10 uM using poly[Glu:Tyr] (4:1) as substrate preincubated for 20 mins followed by [gamma-33P]-ATP addition and measured after 120 mins by Hotspot assay relative to control"}, "[10]": {"biological_target": "Mitogen-activated protein kinase 14 (Homo sapiens) (UniProt Q16539)", "test": "Inhibition of human p38alpha assessed as residual activity at 10 uM using MBP as substrate preincubated for 20 mins followed by [gamma-33P]-ATP addition and measured after 120 mins by Hotspot assay relative to control"}, "[11]": {"biological_target": "Serine/threonine-protein kinase pim-1 (Homo sapiens) (UniProt P11309)", "test": "Inhibition of human PIM1 assessed as residual activity at 10 uM using KKRNRTLTK as substrate preincubated for 20 mins followed by [gamma-33P]-ATP addition and measured after 120 mins by Hotspot assay relative to control"}, "[12]": {"biological_target": "Tyrosine-protein kinase ABL1 (Homo sapiens, UniProt P00519, F317L)", "test": "Binding affinity to human non-phosphorylated ABL1 F317L mutant (S229 to K512 residues) expressed in mammalian expression system after 60 mins by Kinomescan method"}, "[13]": {"biological_target": "Tyrosine-protein kinase ABL1 (Homo sapiens, UniProt P00519, H396P)", "test": "Binding affinity to human non-phosphorylated ABL1 H396P mutant (S229 to K512 residues) expressed in mammalian expression system after 60 mins by Kinomescan method"}, "[14]": {"biological_target": "Tyrosine-protein kinase ABL1 (Homo sapiens, UniProt P00519, T315I)", "test": "Binding affinity to human non-phosphorylated ABL1 T315I mutant (S229 to K512 residues) expressed in mammalian expression system after 60 mins by Kinomescan method"}, "[15]": {"biological_target": "T1, Tyrosine-protein kinase ABL1 (Homo sapiens, UniProt P00519)", "test": "Binding affinity to wild-type human phosphorylated ABL1 (S229 to K512 residues) expressed in mammalian expression system after 60 mins by Kinomescan method"}, "[16]": {"biological_target": "Mast/stem cell growth factor receptor Kit (Homo sapiens, UniProt P10721)", "sequence (P10721 whole entry, the tested form may be a part)": "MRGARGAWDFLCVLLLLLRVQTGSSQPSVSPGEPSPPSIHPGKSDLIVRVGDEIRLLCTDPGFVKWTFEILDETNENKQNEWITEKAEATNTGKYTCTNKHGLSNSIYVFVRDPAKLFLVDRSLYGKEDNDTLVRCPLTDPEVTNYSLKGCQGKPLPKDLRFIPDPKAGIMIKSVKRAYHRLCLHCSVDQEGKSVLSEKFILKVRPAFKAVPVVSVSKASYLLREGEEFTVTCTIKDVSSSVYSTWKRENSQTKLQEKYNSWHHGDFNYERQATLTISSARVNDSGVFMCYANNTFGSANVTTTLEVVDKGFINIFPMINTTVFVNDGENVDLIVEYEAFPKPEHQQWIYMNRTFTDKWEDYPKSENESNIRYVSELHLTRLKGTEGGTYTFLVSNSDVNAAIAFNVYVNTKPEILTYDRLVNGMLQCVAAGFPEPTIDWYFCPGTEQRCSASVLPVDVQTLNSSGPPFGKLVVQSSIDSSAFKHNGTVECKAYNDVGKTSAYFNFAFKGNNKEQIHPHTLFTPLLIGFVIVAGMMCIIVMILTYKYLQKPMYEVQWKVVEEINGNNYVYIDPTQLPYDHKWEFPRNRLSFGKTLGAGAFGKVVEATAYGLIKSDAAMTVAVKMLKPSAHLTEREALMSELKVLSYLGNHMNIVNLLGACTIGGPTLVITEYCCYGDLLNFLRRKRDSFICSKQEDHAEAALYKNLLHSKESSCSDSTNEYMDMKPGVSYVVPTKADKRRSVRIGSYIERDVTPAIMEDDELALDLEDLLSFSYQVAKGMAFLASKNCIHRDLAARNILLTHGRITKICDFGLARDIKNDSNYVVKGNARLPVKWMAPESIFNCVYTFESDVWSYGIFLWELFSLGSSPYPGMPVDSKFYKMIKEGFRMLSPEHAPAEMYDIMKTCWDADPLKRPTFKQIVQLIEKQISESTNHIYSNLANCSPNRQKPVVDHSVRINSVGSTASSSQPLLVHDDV", "test": "Binding affinity to wild-type human partial length KIT (I571 to D952 residues) expressed in bacterial expression system after 60 mins by Kinomescan method"}, "[17]": {"biological_target": "T1, Tyrosine-protein kinase ABL1", "test": "Inhibition of human ABL1 using EAIYAAPFAKKK as substrate preincubated for 20 mins followed by [gamma-33P]-ATP addition and measured after 120 mins by Hotspot assay"}, "[18]": {"biological_target": "Tyrosine-protein kinase BTK (Homo sapiens, UniProt Q06187)", "sequence (Q06187 whole entry)": "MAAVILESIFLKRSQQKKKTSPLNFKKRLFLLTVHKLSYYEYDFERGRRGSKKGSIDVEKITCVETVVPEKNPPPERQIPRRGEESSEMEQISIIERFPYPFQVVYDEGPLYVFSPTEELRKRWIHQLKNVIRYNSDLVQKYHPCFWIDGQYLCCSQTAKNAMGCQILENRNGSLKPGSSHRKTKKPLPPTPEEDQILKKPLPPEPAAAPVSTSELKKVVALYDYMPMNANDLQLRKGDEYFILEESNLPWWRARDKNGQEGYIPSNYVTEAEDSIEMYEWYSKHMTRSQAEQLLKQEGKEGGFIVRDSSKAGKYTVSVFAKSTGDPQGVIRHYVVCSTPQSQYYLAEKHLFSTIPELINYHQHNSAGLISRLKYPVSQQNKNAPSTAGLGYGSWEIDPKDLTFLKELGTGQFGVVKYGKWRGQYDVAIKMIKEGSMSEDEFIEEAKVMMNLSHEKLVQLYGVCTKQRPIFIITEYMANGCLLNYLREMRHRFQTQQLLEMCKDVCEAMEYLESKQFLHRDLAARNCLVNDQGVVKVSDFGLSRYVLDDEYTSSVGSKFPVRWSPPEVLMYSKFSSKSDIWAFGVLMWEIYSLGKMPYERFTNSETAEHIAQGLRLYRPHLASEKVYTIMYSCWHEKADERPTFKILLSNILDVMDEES", "test": "Inhibition of human BTK using KVEKIGEGTYGVVYK as substrate preincubated for 20 mins followed by [gamma-33P]-ATP addition and measured after 120 mins by Hotspot assay"}, "HL-60": {"system": "HL-60", "test": "Growth inhibition of human HL60 cells harboring WT FLT3 at 10 uM after 72 hrs by CellTiter-Glo assay relative to control", "format": "functional", "details": "HL-60, 72 h, read-out: GI"}, "MCF7": {"system": "MCF7", "test": "Growth inhibition of human MCF7 cells at 10 uM after 72 hrs by CellTiter-Glo assay relative to control", "format": "functional", "details": "MCF7, 72 h, read-out: GI"}, "MV4-11 [19]": {"system": "MV4-11", "test": "Induction of apoptosis in human MV4-11 cells after 24 hrs by Annexin V-FITC/propidium iodide staining based flow cytometric analysis", "format": "functional, cell-based"}, "MV4-11 [20]": {"system": "MV4-11", "test": "Induction of apoptosis in human MV4-11 cells assessed as viable cells at 0.1 uM after 24 hrs by Annexin V-FITC/propidium iodide staining based flow cytometric analysis (reference value: 95.19%)", "format": "functional", "details": "MV4-11, 24 h, read-out: Activity"}, "MV4-11 [21]": {"system": "MV4-11", "test": "Induction of apoptosis in human MV4-11 cells assessed as early apoptotic cells at 1 uM after 24 hrs by Annexin V-FITC/propidium iodide staining based flow cytometric analysis (reference value: 3.39%)", "format": "functional"}, "MV4-11 [22]": {"system": "MV4-11", "test": "Induction of apoptosis in human MV4-11 cells assessed as late apoptotic cells at 1 uM after 24 hrs by Annexin V-FITC/propidium iodide staining based flow cytometric analysis (reference value: 1.42%)", "format": "functional"}, "[23]": {"test": "Intrinsic clearance in human liver microsomes assessed per mg protein at 1 uM after 5 to 60 mins in presence of NADPH by LC-MS/MS analysis", "format": "ADME, Microsome", "details": "read-out: CLH"}}, "data": [{"compound": "CN1CCC(Nc2ccc(C(=O)Nc3cc(-c4cc(C#N)cs4)n[nH]3)cc2)CC1", "values": [{"measurement": "Activity", "setting": "[1]", "value": 90.7, "unit": "%"}, {"measurement": "Activity", "setting": "[2]", "value": 48.5, "unit": "%"}, {"measurement": "Activity", "setting": "[3]", "value": 101, "unit": "%"}, {"measurement": "Activity", "setting": "[4]", "value": 20.1, "unit": "%"}, {"measurement": "Activity", "setting": "[5]", "value": 74.5, "unit": "%"}, {"measurement": "Activity", "setting": "[6]", "value": 17.9, "unit": "%"}, {"measurement": "Activity", "setting": "[7]", "value": 65.5, "unit": "%"}, {"measurement": "Activity", "setting": "[8]", "value": 102, "unit": "%"}, {"measurement": "Activity", "setting": "[9]", "value": 8.39, "unit": "%"}, {"measurement": "Activity", "setting": "[10]", "value": 98.4, "unit": "%"}, {"measurement": "Activity", "setting": "[11]", "value": 5.11, "unit": "%"}, {"measurement": "Kd", "setting": "[12]", "value": 6.9, "unit": "µM"}, {"measurement": "Kd", "setting": "[13]", "value": 280, "unit": "nM"}, {"measurement": "Kd", "setting": "[14]", "value": 580, "unit": "nM"}, {"measurement": "Kd", "setting": "[15]", "value": 520, "unit": "nM"}, {"measurement": "Kd", "setting": "[16]", "value": 2.2, "unit": "nM"}, {"measurement": "IC50", "setting": "[17]; read-out: IC50", "value": 931, "unit": "nM"}, {"measurement": "IC50", "setting": "[17]; read-out: pIC50 (converted)", "value": 1000, "unit": "nM"}, {"measurement": "IC50", "setting": "[18]; read-out: IC50", "value": 1640, "unit": "nM"}, {"measurement": "IC50", "setting": "[18]; read-out: pIC50 (converted)", "value": 1580, "unit": "nM"}, {"measurement": "inhibition of growth at 10 µM", "setting": "HL-60", "value": 10.2, "unit": "%"}, {"measurement": "inhibition of growth at 10 µM", "setting": "MCF7", "value": 0.83, "unit": "%"}, {"measurement": "Activity", "setting": "MV4-11 [19]", "value": "Dose-dependent effect"}, {"measurement": "viability at 0.1 µM", "setting": "MV4-11 [20]", "value": 56.8, "unit": "%"}, {"measurement": "Activity", "setting": "MV4-11 [21]", "value": 31.43, "unit": "%"}, {"measurement": "Activity", "setting": "MV4-11 [22]", "value": 27.75, "unit": "%"}, {"measurement": "microsomal CLint at 1 µM", "setting": "[23]", "value": 22.4, "unit": "µL/min/mg"}]}]}
